Measured values taken from PubChem BioAssay (NCI).
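Each compound was tested at five concentrations against cells in 96-well plates for 48 hours. GI50 is the concentration that inhibits growth by half. Definition used: TGI = concentration required for complete inhibition of growth.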

Legend:
Experiment in all cases: NCI tumour cell line growth inhibition, 48 h
OVCAR-8 ovarian = system: OVCAR-8 ovarian
MALME-3M melanoma = system: MALME-3M melanoma
UACC-257 melanoma = system: UACC-257 melanoma
SK-OV-3 ovarian = system: SK-OV-3 ovarian
NCI-H23 lung = system: NCI-H23 lung
CCRF-CEM leukemia = system: CCRF-CEM leukemia
RPMI-8226 leukemia = system: RPMI-8226 leukemia
HCT-116 colon = system: HCT-116 colon
HCT-15 colon = system: HCT-15 colon

| SMILES | TGI (OVCAR-8 ovarian) | TGI (MALME-3M melanoma) | TGI (UACC-257 melanoma) | TGI (SK-OV-3 ovarian) | TGI (NCI-H23 lung) | TGI (CCRF-CEM leukemia) | TGI (RPMI-8226 leukemia) | TGI (HCT-116 colon) | TGI (HCT-15 colon) | GI50 (HCT-116 colon) | GI50 (OVCAR-8 ovarian) | GI50 (SK-OV-3 ovarian) | GI50 (NCI-H23 lung) | GI50 (CCRF-CEM leukemia) | GI50 (HCT-15 colon) | GI50 (RPMI-8226 leukemia) |
| --- | --- | --- | --- | --- | --- | --- | --- | --- | --- | --- | --- | --- | --- | --- | --- | --- |
| CN(C)CC(/C(Cc1ccccc1)=N\NC(=O)c1ccncc1)c1ccccc1 (stereo not given) | > 100 µM | 93.4 µM | > 100 µM | > 100 µM | > 100 µM | > 100 µM | 51.6 µM | – | – | – | – | – | – | – | – | – |
| N/N=C(\CC1OC(=O)c2ccccc21)c1ccco1 (stereo not given) | – | > 100 µM | > 100 µM | > 100 µM | > 100 µM | > 100 µM | – | > 100 µM | > 100 µM | – | – | – | – | – | – | – |
| CC1(CO)OC1COCc1ccccc1 (stereo not given) | > 100 µM | > 100 µM | > 100 µM | > 100 µM | > 100 µM | > 100 µM | > 100 µM | – | > 100 µM | – | – | – | – | – | – | – |
| CC1Cc2c(N)nc(NN)nc2NC1=O (stereo not given) | > 100 µM | > 100 µM | > 100 µM | > 100 µM | > 100 µM | > 100 µM | > 100 µM | > 100 µM | > 100 µM | – | – | – | – | – | – | – |
| CC(=O)OCSc1ncnc2c1ncn2CN1CCOCC1 | > 100 µM | > 100 µM | > 100 µM | > 100 µM | 53.2 µM | > 100 µM | > 100 µM | > 100 µM | > 100 µM | – | – | – | – | – | – | – |
| O=C(O)c1c2c(c(C(=O)O)c3ccccc13)-c1ccccc1-2 | > 100 µM | > 100 µM | > 100 µM | 94.8 µM | > 100 µM | > 100 µM | > 100 µM | > 100 µM | – | – | – | – | – | – | – | – |
| COc1ccc(C2S/C(=C\c3cc(OC)c(OC)c(OC)c3)C(=O)N2NC(=O)Cc2ccccc2)cc1 (stereo not given) | > 100 µM | > 100 µM | > 100 µM | > 100 µM | > 100 µM | > 100 µM | > 100 µM | > 100 µM | > 100 µM | – | – | – | – | – | – | – |
| COc1ccc(C(=O)C(c2ccc(OC)cc2)C2(O)C(=O)Nc3c(C)cc(Cl)cc32)cc1 (stereo not given) | > 100 µM | > 100 µM | > 100 µM | > 100 µM | > 100 µM | 47.7 µM | 80.4 µM | > 100 µM | > 100 µM | – | – | – | – | – | – | – |
| O=[N+]([O-])c1ccc(Sc2c3ccccc3nc3ccccc23)cc1 | > 100 µM | > 100 µM | > 100 µM | – | > 100 µM | > 100 µM | > 100 µM | > 100 µM | > 100 µM | – | – | – | – | – | – | – |
| N#Cc1ccccc1NC(=O)/C(=N\NC(=O)c1ccncc1)C(c1cnc2ccc([N+](=O)[O-])cc2n1)[N+](=O)[O-] (stereo not given) | > 100 µM | > 100 µM | > 100 µM | > 100 µM | > 100 µM | > 100 µM | > 100 µM | > 100 µM | > 100 µM | – | – | – | – | – | – | – |
| Cc1cccc(C)c1NC(=O)CCCC(=O)CC(=O)/C=C/c1ccccc1 | > 100 µM | > 100 µM | > 100 µM | > 100 µM | > 100 µM | > 100 µM | > 100 µM | > 100 µM | > 100 µM | – | – | – | – | – | – | – |
| COc1ccc(/C=C2\CN(C(=O)C(Cl)Cl)C/C(=C\c3ccc(OC)c(OC)c3)C2=O)cc1OC | > 100 µM | – | – | > 100 µM | 1.79 µM | > 100 µM | 0.155 µM | 0.103 µM | 0.446 µM | 0.0306 µM | 0.0495 µM | 2.46 µM | 0.41 µM | 0.0341 µM | 0.069 µM | 0.0306 µM |
| CCOC(=O)/C(=C\c1ccc(OCc2ccccc2)c(OC)c1)C(=O)c1ccccc1 | > 10 µM | 32.3 µM | > 10 µM | > 100 µM | 35.2 µM | 58.5 µM | 86.5 µM | 31.3 µM | 42.3 µM | – | – | – | – | – | – | – |
| O=C(CNC(=O)OCc1ccccc1)Oc1ccccc1 | > 100 µM | > 100 µM | > 100 µM | > 100 µM | > 100 µM | > 100 µM | > 100 µM | > 100 µM | > 100 µM | – | – | – | – | – | – | – |
| CC(C)=CC(=O)Oc1ccc([N+](=O)[O-])cc1 | > 100 µM | > 100 µM | > 100 µM | > 100 µM | > 100 µM | > 100 µM | > 100 µM | > 100 µM | > 100 µM | – | – | – | – | – | – | – |
| CCOc1cc2c(cnc3c4cc(OC)c(OC)cc4ccc23)cc1OC | > 100 µM | > 100 µM | > 100 µM | > 100 µM | > 100 µM | > 100 µM | > 100 µM | > 100 µM | > 100 µM | – | – | – | – | – | – | – |
| COC1/C(=C\C(=O)OC(C)(C)C)c2ccccc2N1C(C)=O (stereo not given) | > 100 µM | – | > 100 µM | > 100 µM | > 100 µM | > 100 µM | > 100 µM | > 100 µM | > 100 µM | – | – | – | – | – | – | – |
